In data set [1] the target is T1, Staphylococcus aureus lipase (SAL, glycerol ester hydrolase) (Staphylococcus aureus, UniProt A0A0U1MWF9).
T1 construct: gene lip; mature form containing 394 amino acid residues (recombinant, His-tagged; residues 4–385 determined in the native structure)
Put plainly: co-crystal structure at […] Å; IC50 from purified-enzyme p-nitrophenyl butyrate hydrolysis assay. It counts as biochemical.

Data set [2] deals with the molecule itself. Put plainly: SEC; Superdex 200 Increase 10/300 GL, 10 mg/mL SAL injected at 20 °C, 50 mM Tris-HCl pH 7.5, 0.2 M NaCl, 0.5 ml/min, BSA as standard for calibration.

T1 sequence (A0A0U1MWF9 entry or part of it): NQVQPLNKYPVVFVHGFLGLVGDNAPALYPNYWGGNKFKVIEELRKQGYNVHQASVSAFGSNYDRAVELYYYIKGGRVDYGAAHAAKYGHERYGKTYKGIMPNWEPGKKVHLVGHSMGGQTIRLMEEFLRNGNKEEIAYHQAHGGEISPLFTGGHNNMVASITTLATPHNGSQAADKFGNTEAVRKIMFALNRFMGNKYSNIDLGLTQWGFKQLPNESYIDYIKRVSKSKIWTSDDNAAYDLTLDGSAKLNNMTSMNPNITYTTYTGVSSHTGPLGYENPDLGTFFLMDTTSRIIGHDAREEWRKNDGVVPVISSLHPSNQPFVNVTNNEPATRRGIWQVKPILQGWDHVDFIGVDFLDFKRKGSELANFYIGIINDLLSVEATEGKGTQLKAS

In data set [1], `CCCCCCCCCCC[C@@H](C[C@@H]1OC(=O)[C@H]1CCCCCC)OC(=O)[C@H](CC(C)C)NC=O` [orlistat] displayed a 50% inhibitory concentration (IC50) of 2400 nM.

B1: Staphylococcus aureus lipase (SAL), native, mature form (enzyme)
chain: ANQVQPLNKYPVVFVHGFLGLVGDNAPALYPNYWGGNKFKVIEELRKQGYNVHQASVSAFGSNYDRAVELYYYIKGGRVDYGAAHAAKYGHERYGKTYKGIMPNWEPGKKVHLVGHSMGGQTIRLMEEFLRNGNKEEIAYHKAHGGEISPLFTGGHNNMVASITTLATPHNGSQAADKFGNTEAVRKIMFALNRFMGNKYSNIDLGLTQWGFKQLPNESYIDYIKRVSKSKIWTSDDNAAYDLTLDGSAKLNNMTSMNPNITYTTYTGVSSHTGPLGYENPDLGTFFLMATTSRIIGHDAREEWRKNDGVVPVISSLHPSNQPFVNVTNDEPATRRGIWQVKPIIQGWDHVDFIGVDFLDFKRKGAELANFYTGIINDLLRVEATESKGTQLKAS
notes: Staphylococcus aureus lipase (glycerol ester hydrolase), mature form of 394 residues processed from the prepolypeptide of 690 residues; numbers count on: the mature protein; Residues 4-385 are visible in the crystal; The pCold II vector is surmised to add the His tag at the N-terminus; also called SA lipase; glycerol ester hydrolase; source: E. coli, purified (three-step chromatography, …)
Regarding B1, the “stoichiometry N” value in data set [2] was 2.

Values taken from paper PMC7096528, “Crystal structure of pathogenic Staphylococcus aureus lipase complex with the anti-obesity drug orlistat” (Scientific Reports, 2020).
